Reference: US10905680B2, “Methods of treatment for cholestatic and fibrotic diseases” (Genfit, priority 2016, dated 2021)

Columns and labels:
[1] = test system: rat primary hepatic stellate cells (rHSC); assay: TGFβ1-induced expression of α-SMA protein in rat HSC (ELISA); assay type: cell-based; conditions: TGFβ1 3 ng/ml, 48 hours
Experimental: NTZ (A) or TZ (B) were added to serum-deprived rat HSC (rHSC) 1 hour before the activation with TGFβ1 (3 ng/ml). After 48 hours of incubation, the expression of α-SMA was measured by ELISA. The obtained values were transformed into percentage inhibition over TGFβ1 control. Data are presented as mean (triplicates)±standard deviation (SD). Statistical analyses were performed by one-way ANOVA followed by Bonferroni post-hoc tests, using Sigma Plot 11.0 software. [*: p<0.05; **: p<0.01; ***: p<0.001 (comparison versus TGFβ1 3 ng/mL group)]. The rat primary hepatic stellate cells (rHSC) (Innoprot) were cultured in STeCM medium (ScienCell cat #5301) that was supplemented with 2% fetal bovine serum (FBS, ScienCell cat #0010), 1% penicillin/streptomycin (ScienCell cat #0503) and stellate cell growth supplement (SteCGS; ScienCell cat #5352). For the activation experiments with TGFβ1, the rHSC were plated at a density of 10×10^3 cells per well in 96-well plates. The next day, cell culture medium was removed, and cells were washed with PBS (Invitrogen cat #14190). rHSC were deprived for 24 hours in serum-free and SteCGS-free medium. […] The level of α-SMA was measured using a Sandwich ELISA. […]

[2] = test system: human primary hepatic stellate cells (hHSC); assay: TGFβ1-induced expression of α-SMA protein in human HSC (ELISA); assay type: cell-based; conditions: TGFβ1 1 ng/ml, 48 hours
Experimental: Serum-deprived HSC were preincubated for 1 hour with NTZ (A) or TZ (B) before the activation with the profibrogenic cytokine TGFβ1 (1 ng/ml). After 48 hours of incubation, the expression of α-SMA was measured by ELISA. The obtained values were transformed into percentage inhibition over TGFβ1 control. Data are presented as mean (triplicates)±standard deviation (SD). Statistical analyses were performed by one-way ANOVA followed by Bonferroni post-hoc tests, using Sigma Plot 11.0 software. [*: p<0.05; **: p<0.01; ***: p<0.001 (comparison versus TGFβ1 1 ng/mL group)]. The curve fitting and the calculation of half maximal inhibitory concentration (IC50) were performed with XLFit software 5.3.1.3. The human primary hepatic stellate cells (hHSC) (Innoprot) were cultured in STeCM medium (ScienCell cat #5301) that was supplemented with 2% fetal bovine serum (FBS, ScienCell cat #0010), 1% penicillin/streptomycin (ScienCell cat #0503) and stellate cell growth supplement (SteCGS; ScienCell cat #5352). Cell culture flasks were coated with Poly-L Lysine (Sigma cat # P4707) for a better adherence. The human primary hepatic stellate cells (hHSC) (Innoprot) were cultured under standard conditions, as described above. The cells were subsequently plated at a density of 7×10^4 cells/well into 24-well plates for gene expression studies, and at a density of 2×10^4 cells/well into 96-well plates for the measure of α-SMA by ELISA. The next day, cell culture medium was removed, and cells were washed with PBS (Invitrogen cat #14190). hHSC were deprived for 24 hours in serum-free and SteCGS-free medium. For the treatments with NTZ or TZ, the serum-deprived hHSC were preincubated for 1 hour with the compounds followed by the addition of the profibrogenic stimuli TGFβ1 (PeproTech cat #100-21, 1 ng/mL) in serum-free and SteCGS-free medium for an additional 24 or 48 hour period (the timepoint is indicated in the figure legends). […] The level of α-SMA was measured using a Sandwich ELISA. […]

For `O=C(Nc1ncc([N+](=O)[O-])s1)c1ccccc1O` [TZ, 2-hydroxy-N-(5-nitro-2-thiazolyl)benzamide], the “α-SMA levels in TGFβ-activated HSC derived from rat” value [1] was “reduced”, the IC50 ([2]; Homo sapiens, 1 h preincubation, read-out: IC50 (level of α-SMA in TGFβ-induced HSCs)) was 100 to 3000 nM and the “level of α-SMA in TGFβ-induced HSCs” value [2] was “profile similar to the parent drug”.
